Laboratory results reported in ChEMBL document CHEMBL1127807 (J Med Chem, 1994).

How the values were obtained:
Mu-type opioid receptor = Mu-type opioid receptor (Cavia porcellus, UniProt P97266); assay: Tested for the binding affinity against the Mu opioid receptor in guinea pig brain using [3H]-DAMGO
[1] = biological target: Opioid receptors; mu/kappa/delta (Homo sapiens, UniProt P41145+P41143+P35372); assay: Tested for the binding affinity against the opioid receptor in guinea pig brain using [3H]bremazocine; design: species or system Cavia porcellus; conditions: target entry is the homologue from another species
[2] = biological target: Kappa-type opioid receptor (Cavia porcellus, UniProt P41144); assay: Tested for the binding affinity against the Kappa opioid receptor in guinea pig brain using [3H]U-69593
Chain of Kappa-type opioid receptor (P41144 whole entry): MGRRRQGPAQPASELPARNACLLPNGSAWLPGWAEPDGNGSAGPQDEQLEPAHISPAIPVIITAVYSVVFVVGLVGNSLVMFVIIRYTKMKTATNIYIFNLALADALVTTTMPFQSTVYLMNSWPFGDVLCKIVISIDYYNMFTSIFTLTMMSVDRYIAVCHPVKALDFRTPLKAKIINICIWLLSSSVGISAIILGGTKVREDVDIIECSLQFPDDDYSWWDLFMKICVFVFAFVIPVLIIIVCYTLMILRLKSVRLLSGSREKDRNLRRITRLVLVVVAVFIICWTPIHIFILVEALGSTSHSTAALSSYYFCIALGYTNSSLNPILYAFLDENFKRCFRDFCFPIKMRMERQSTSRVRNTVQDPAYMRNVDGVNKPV

Chain of Mu-type opioid receptor (P97266 whole entry): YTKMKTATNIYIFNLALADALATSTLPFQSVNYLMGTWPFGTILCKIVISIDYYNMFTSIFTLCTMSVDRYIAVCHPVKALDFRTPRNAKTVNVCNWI

SMILES	IC50 (Mu-type opioid receptor) [nM]	IC50 [1] [nM]	IC50 [2] [nM]
Oc1ccc2c3c1OC1[C@@H](OCc4ccc5ccccc5c4)CCC4(O)C(C2)N(CC2CC2)CCC314 (some centres not stated)	1.2	4.7	1.4
Oc1ccc2c3c1OC1[C@@H](OCc4cccc5ccccc45)CCC4(O)C(C2)N(CC2CC2)CCC314 (some centres not stated)	1	7.3	4.4
Oc1ccc2c3c1OC1[C@@H](OCc4ccc(-c5ccccc5)cc4)CCC4(O)C(C2)N(CC2CC2)CCC314 (some centres not stated)	10	28	12
Oc1ccc2c3c1OC1[C@@H](OCc4ccccc4)CCC4(O)C(C2)N(CC2CC2)CCC314 (some centres not stated)	0.3	1.5	0.6
Oc1ccc2c3c1OC1[C@@H](OCc4c5ccccc5cc5ccccc45)CCC4(O)C(C2)N(CC2CC2)CCC314 (some centres not stated)	6.6	45	34
Oc1ccc2c3c1OC1[C@H](OCc4ccc5ccccc5c4)CCC4(O)C(C2)N(CC2CC2)CCC314 (some centres not stated)	1.7	5	1.5
Oc1ccc2c3c1OC1[C@H](OCc4ccc(-c5ccccc5)cc4)CCC4(O)C(C2)N(CC2CC2)CCC314 (some centres not stated)	0.7	3.3	1.5
Oc1ccc2c3c1OC1[C@H](OCc4ccccc4)CCC4(O)C(C2)N(CC2CC2)CCC314 (some centres not stated)	2.4	3.4	2
Oc1ccc2c3c1OC1[C@H](OCc4c5ccccc5cc5ccccc45)CCC4(O)C(C2)N(CC2CC2)CCC314 (some centres not stated)	16	71	27
Oc1ccc2c3c1OC1[C@H](OCc4cccc5ccccc45)CCC4(O)C(C2)N(CC2CC2)CCC314 (some centres not stated)	3.1	11	6.1
O=C(COC1CCC2(O)C3Cc4ccc(O)c5c4C2(CCN3CC2CC2)C1O5)C1[C@H]2C[C@@H]3C[C@@H](C[C@H]1C3)C2 (some centres not stated)	6.6	13	3.3
Oc1ccc2c3c1O[C@H]1[C@H](O)CC[C@@]4(O)[C@@H](C2)N(CC2CC2)CC[C@]314 (stereo in doubt; 6)	1.1		2.6
Oc1ccc2c3c1O[C@H]1[C@H](O)CC[C@@]4(O)[C@@H](C2)N(CC2CC2)CC[C@]314 (stereo in doubt; 7)	0.5		1.8
